Values after ≈ are worked out from the molar mass of the structure shown. Structures can show the parent of a compound that is named as a salt.
Key:
[1] = system: Thromboxane A2 Synthetase; experiment: Duration of action of thromboxane A2 synthetase inhibitors in vivo (oral dosing, thromboxane A2 in serum of clotted blood by RIA); set-up: species or system N.Z. male rabbits; conditions: rabbit, period over which thromboxane A2 concentration is depressed relative to controls
Description: N.Z. male rabbits weighing 2.5 kg are anaesthetized with sodium pentobarbitone and chloralose and one carotoid artery is cannulated. Blood samples (lml) are taken for incubation; two as controls and one, adding 10 µg indomethacin, as a blank. After each sample is taken the cannula is flushed with saline. The active compound is then administered orally and further samples at half hour intervals for five to eight hours. The blood samples for the controls and the active compound are incubated in glass tubes for 45 minutes at 37°C to clot the blood. Indomethacin is added and the tubes centrifuged to separate the serum which is pipetted off for RIA analysis to determine the concentration of thromboxane A2. The period of time over which the inhibitor depressed the concentration of thromboxane A2 relative to the controls is then determined.

[2] = system: Thromboxane A2 Synthetase; experiment: Determination of thromboxane A2 synthetase inhibitory activity (lysed horse platelets, [1-14C]-arachidonic acid conversion, TLC/scintillation counting); type: biochemical; conditions: concentration of active compound required to reduce the enzyme activity by 50%; horse platelet lysate, 3 min at 37°C
Description: The active compound was dissolved in a suitable solvent at a concentration of 5 mg/ml, and 20 µl added to 0.8 ml of 100 mM Tris buffer (pH 7.5). The platelets from 5 ml of horse PRP were centrifuged and resuspended in 100µl of Tris buffer. After lysis by sonication or freeze thawing, the platelet suspension was added to the solution of active compound and equilibrated for 5 min at room temperature. Then 300 ng (50 nCi) of [1-^14C]-arachidonic acid, dissolved in 100 µl Tris buffer, was added and the mixture incubated for 3 min at 37°C. The reaction was stopped with 50 ul 2N HCl and the products extracted with 1.5 volumes ethyl acetate by whirling for 30 seconds. 1 ml saturated NaCl was added to the aqueous phase to prevent emulsion formation. […] The plate was developed in chloroform, methanol, acetic acid, water (90:8:1:0.8), dried and then visualised by autoradiography for 2-3 days. […] The concentration of active compound required to reduce the enzyme activity by 50% (ED50) was established.

| SMILES | duration of action ([1]; dose of 160 mg/kg) | ED50 [2] | duration of action ([1]; dose of 2 mg/kg) |
| --- | --- | --- | --- |
| Cl.O=C(O)c1ccc(Cn2ccnc2)c(Cl)c1 [Example 1, 1-(4-Carboxy-2-chlorobenzyl)imidazole hydrochloride] | at least 5 hours | 6.6 µg/mL |  |
| CCOC(=O)/C=C/c1ccc(Cn2ccnc2)c(Cl)c1 [Example 2, Ethyl (E)-3-[3-chloro-4-(imidazol-1-ylmethyl)phenyl]prop-2-enoate] |  | 0.5 µg/mL (≈ 1.72 µM) |  |
| Cl.O=C(O)/C=C/c1ccc(Cn2ccnc2)c(Cl)c1 [Example 3, (E)-3-[3-Chloro-4-(imidazol-1-ylmethyl)phenyl] prop-2-enoic acid hydro chloride] |  | 0.05 µg/mL | at least 7 hours |
| O=C(O)CCc1ccc(Cn2ccnc2)c(Cl)c1 [Example 4, 3-[3-Chloro-4-(imidazol-1-ylmethyl)phenyl]proeanoic acid hydrochloride] |  | 0.08 µg/mL |  |
| Cl.O.O=C(O)C=Cc1ccc(Cn2ccnc2)c(Br)c1 [Example 6, 3-[3-Bromo-4-(imidazol-1-ylmethyl)phenyl]prop-2-enoic acid hydrochloride hydrate] |  | 0.015 µg/mL |  |
| O=C(O)c1ccc(C=CCn2ccnc2)cc1Cl [Example 10, 1-[3-(4-Carboxy-3-chlorophenyl)prop-2-enyl]imidazole hydrochloride hemihydrate] |  | 0.35 µg/mL |  |

— patent EP0106060A2, “Imidazole derivatives and salts thereof, their synthesis, and pharmaceutical formulations” (THE WELLCOME FOUNDATION LIMITED, priority 1982, dated 1984)
